Source: PMC11911205 (Frontiers in Pharmacology, 2025)
Where two headings read alike, the source gives them in different places.

How the values were obtained:
[1] = target: human liver microsomes (HLM) (Homo sapiens, UniProt P08684)
Method: (§1) Considering that RLM or HLM microsome may have different metabolic rates, we conducted experiments on enzyme and incubation time before the start of the experiment. […] A rate-time graph was created to select the most suitable concentration and incubation time within the linear range of variation. […] The drug was dissolved in DMSO.
(§2) The relationship between reaction rate and substrate concentration based on the Michaelis-Menten equation was calculated, and the Km value through nonlinear fitting was determined. […] The relationship between inhibitor concentration and reaction rate was plotted after the reaction rate at different inhibitor concentrations was determined, and then the IC50 value through nonlinear regression analysis was calculated. […] The above mixture was incubated at 37°C for 5 min, after which NADPH was added to start the reaction process for 30 min, and it was finally cooled to −80°C to stop the reaction. 400 μL of acetonitrile and 20 μL of IS working solution (200 ng/mL) were incorporated into the mixture. Following vortexed and centrifugated at 13,000 rpm for 10 min, the supernatant was obtained for UPLC-MS/MS analysis.
(§3) Km, IC50, Lineweaver-Burk plots and mean plasma concentration-time curves were generated using GraphPad Prism 9.5 software. […] SPSS (version 26.0; SPSS Inc., Chicago, IL, United States) was used for data processing, and t-test was employed to determine whether there was a significant difference.

[2] = test system: rat liver microsomes (RLM); test: Vandetanib metabolism (N-demethyl vandetanib formation) and its inhibition by luteolin in rat liver microsomes; details: RLM, Lineweaver-Burk plot
Method: as §1, §2, §3

[3] = test system: vandetanib metabolism (N-demethyl vandetanib formation) in rat liver microsomes; test: as above; details: rat, rat liver microsomes, pH 7.4, probe vandetanib at its Km value in RLM
Method: as §1, §2, §3

[4] = target: vandetanib metabolism (N-demethyl vandetanib formation) in human liver microsomes (Homo sapiens, UniProt P08684); test: Vandetanib metabolism (N-demethyl vandetanib formation) and its inhibition by luteolin in human liver microsomes; details: pH 7.4
Chain of vandetanib metabolism (N-demethyl vandetanib formation) in human liver microsomes (P08684 2-503): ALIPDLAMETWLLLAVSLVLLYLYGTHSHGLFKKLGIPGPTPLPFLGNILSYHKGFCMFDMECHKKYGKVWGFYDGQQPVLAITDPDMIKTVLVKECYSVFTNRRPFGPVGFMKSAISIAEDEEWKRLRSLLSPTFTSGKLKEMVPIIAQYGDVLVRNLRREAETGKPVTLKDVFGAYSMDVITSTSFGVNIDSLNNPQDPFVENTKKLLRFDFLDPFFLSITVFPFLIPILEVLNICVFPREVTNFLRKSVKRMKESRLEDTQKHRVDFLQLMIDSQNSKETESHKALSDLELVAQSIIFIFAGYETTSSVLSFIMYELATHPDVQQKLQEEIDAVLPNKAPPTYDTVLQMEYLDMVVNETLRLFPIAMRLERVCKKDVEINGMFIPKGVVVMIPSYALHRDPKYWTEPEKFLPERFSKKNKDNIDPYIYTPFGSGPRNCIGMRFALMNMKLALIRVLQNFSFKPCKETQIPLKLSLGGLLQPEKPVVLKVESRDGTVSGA
Method: as §1, §2, §3

[5] = Pharmacokinetics of vandetanib and N-demethyl vandetanib in SD rats with or without luteolin (UPLC-MS/MS of plasma); assay type: in vivo, Sprague-Dawley (SD) rats; details: for AUC(0-t) / AUC(0-∞) / CLz/F / Cmax / Tmax / t1/2 / AUC(0-inf) / half-life / CL/F: plasma; for CL/F: read-out: CLz/F (converted)
Method: Male SD rats weighing 180–220 g were provided by the Laboratory Animal Center of the First Affiliated Hospital of Wenzhou Medical University (Zhejiang, China). They were housed under standard conditions with a temperature of 20°C–26°C, a relative humidity of 55% ± 15%, and a 12-h dark/light cycle. The rats had free access to water and no other drugs were given during the feeding period, and were prohibited from eating for 12 h before the experiment. The experimental procedures and protocols were in accordance with animal ethics standards and approved by the Institutional Animal Care and Use Committee of the First Affiliated Hospital of Wenzhou Medical University (Zhejiang, China).
Therefore, we adopted the same dosages to ensure the comparability and validity of the experimental results. 0.3 mL tail vein blood was collected at 0.5, 1, 1.5, 2, 3, 4, 6, 8, 12, 24, 48 and 80 h post-vandetanib administration. The blood samples were centrifuged at 4°C at 13,000 rpm for 10 min to obtain plasma, which was aspirated and stored at −80°C until analysis.

[6] = set-up: method as in Martin et al., 2011; details: ref Martin et al., 2011, cited from earlier work
[7] = in vitro; details: rat, pH 7.4
Method: as §1, §2, §3

[8] = set-up: method as in Indra et al., 2020; details: ref Indra et al., 2020; cited from earlier work
[9] = inhibition of vandetanib metabolism
[10] = luteolin 30 mg/kg by gavage 30 min before vandetanib 25 mg/kg by gavage
[11] = vandetanib 25 mg/kg by gavage alone (control group)
[12] = luteolin 30 mg/kg + vandetanib 25 mg/kg vs vandetanib alone
[13] = male, Sprague-Dawley, rat, po, 25 mg/kg, luteolin 30 mg/kg by gavage 30 min before vandetanib 25 mg/kg by gavage
[14] = male, Sprague-Dawley, rat, po, 25 mg/kg, vandetanib 25 mg/kg by gavage alone (control group)

Chain of human liver microsomes (HLM) (P08684 2-503): as above

O=c1cc(-c2ccc(O)c(O)c2)oc2cc(O)cc(O)c12 [Luteolin]
inhibition type [1]: mixture of non-competitive and un-competitive | α [1]: 0.28 µM | inhibition mechanism [2]: mixture of non-competitive inhibition and competitive inhibition | Ki [2, 9]: 2.33 µM | α [2, 9]: 6.68 µM | IC50 at 30 min [3]: 8.56 µM | IC50 at 30 min [4]: 15.8 µM

COc1cc2c(Nc3ccc(Br)cc3F)ncnc2cc1OCC1CCNCC1 [N-demethyl vandetanib]
AUC(0-t) [5, 10]: 998.82 ± 276.65 ng·h/mL | AUC(0-∞) [5, 10]: 1,118.64 ± 320.66 μg/L*h | CLz/F [5, 10]: 397.2 ± 108 mL/min/kg | Cmax [5, 10]: 22.41 ± 5.84 ng/mL | Tmax [5, 10]: 11.20 ± 1.79 h | t1/2 [5, 10]: 24.33 ± 5.63 h | AUC(0-t) [5, 11]: 938.88 ± 144.07 ng·h/mL | AUC(0-∞) [5, 11]: 1,163.14 ± 157.34 μg/L*h | CLz/F [5, 11]: 363.8 ± 51.7 mL/min/kg | Cmax [5, 11]: 19.56 ± 3.03 ng/mL | Tmax [5, 11]: 14.40 ± 5.37 h | t1/2 [5, 11]: 34.04 ± 15.69 h

COc1cc2c(Nc3ccc(Br)cc3F)ncnc2cc1OCC1CCN(C)CC1 [Vandetanib]
increase of AUC(0-t) of vandetanib in luteolin group compared with the control group [5, 12]: 18.1% | increase of Cmax of vandetanib in luteolin group compared with the control group [5, 12]: 32.8% | AUC(0-inf) [5, 13]: 41100 ng·h/mL | half-life [5, 13]: 23 ± 4.02 h | AUC(0-t) ([5]; male, Sprague-Dawley, rat, po, 25 mg/kg, luteolin 30 mg/kg by gavage 30 min before vandetanib 25 mg/kg by gavage, read-out: AUC(0-t)): 37100 ng·h/mL | CL/F [5, 13]: 10.2 mL/min/kg | Cmax ([5]; male, Sprague-Dawley, rat, po, 25 mg/kg, luteolin 30 mg/kg by gavage 30 min before vandetanib 25 mg/kg by gavage, read-out: Cmax): 1140 ng/mL | Tmax ([5]; male, Sprague-Dawley, rat, po, 25 mg/kg, luteolin 30 mg/kg by gavage 30 min before vandetanib 25 mg/kg by gavage, read-out: Tmax): 7.6 ± 2.61 h | AUC(0-inf) [5, 14]: 36100 ng·h/mL | half-life [5, 14]: 26.6 ± 4.35 h | AUC(0-t) ([5]; male, Sprague-Dawley, rat, po, 25 mg/kg, vandetanib 25 mg/kg by gavage alone (control group), read-out: AUC(0-t)): 31400 ng·h/mL | CL/F [5, 14]: 11.7 mL/min/kg | Cmax ([5]; male, Sprague-Dawley, rat, po, 25 mg/kg, vandetanib 25 mg/kg by gavage alone (control group), read-out: Cmax): 859 ± 125 ng/mL | Tmax ([5]; male, Sprague-Dawley, rat, po, 25 mg/kg, vandetanib 25 mg/kg by gavage alone (control group), read-out: Tmax): 8.8 ± 3.03 h | levels of vandetanib exposure ([6]; combined with itraconazole, a potent CYP3A4 inhibitor): increased | AUC of vandetanib ([6]; combined with rifampicin, a strong inducer of CYP3A4): significantly decreased | Km at 30 min [7]: 9.41 µM

COc1cc2c(Nc3ccc(Br)cc3F)ncnc2cc1OCC1CC[N+](C)([O-])CC1 (stereo not shown) [vandetanib N-oxide]
less activity compared to the original compound (vandetanib) [8]: over 50 times
